From article PMC3947168 (Molecular cancer therapeutics, 2013)
Like-named read-outs stand apart in the source and are kept apart here. One block for each molecule: values may come before it.

What was measured:
[1] = system: PTC cell lines (BHP, B-CPAP and TPC-1); settings: cited from earlier work
TL3 cells [2] = experiment: Cell cycle analysis; type: cell-based, human; settings: 24 hour, control 2%
[3] = system: p-AKT, p-STAT3, p-ERK, p-4E-BP1; experiment: c-MET downstream signaling; type: cell-based, human; settings: SW1736 and TL3; for levels of p-STAT3 and p-AKT / phosphorylation of ERK and 4E-BP1: 0.1, 1.0, and 10 μM
T2 cells [4] = experiment: Cell cycle analysis; type: cell-based, human; settings: 24 hour, control 3%
MDA-MB-231 cells = experiment: MTT cellular proliferation assay, MDA-MB-231; type: cell-based; settings: Homo sapiens, MDA-MB-231, 72 h, read-out: Growth inhibition (IC50)
TL3 cells [5] = experiment: Apoptosis assay; type: cell-based, human; settings: 10 μM, 24 hours, diluent control 10%
SW1736 cells [6] = experiment: MTT cellular proliferation assay, SW1736; type: cell-based; settings: Homo sapiens, SW-1736, read-out: inhibition of cell growth
[7] = system: thyroid cancer cell lines (SW1736, T2, TL3, BHP2-7); experiment: MTT cellular proliferation assay, responsive thyroid cancer cell lines; type: cell-based; settings: Homo sapiens, SW-1736, 72 h, read-out: IC50 of proliferation
HT29 cells = experiment: MTT cellular proliferation assay, HT29; type: cell-based; settings: Homo sapiens, HT-29, 72 h, read-out: Growth inhibition (IC50)
SW1736 cells [8] = experiment: Cell cycle analysis; type: cell-based, human; settings: 24 hour, diluent control 9%
SW1736 cells [9] = experiment: Apoptosis assay; type: cell-based, human; settings: 10 μM, 24 hours, diluent control 10%
[10] = system: SW1736 human anaplastic thyroid tumor xenografts; experiment: Murine xenograft model; type: in vivo, nu/nu athymic mice
T2 cells [11] = experiment: Apoptosis assay; type: cell-based, human; settings: 10 μM, 24 hours, diluent control 11%
TL3 cells [12] = experiment: MTT cellular proliferation assay, TL3; type: cell-based; settings: Homo sapiens; for IC50: 72 h, read-out: Growth inhibition (IC50)
c-MET [13] = molecular target: T1, c-MET (Homo sapiens, UniProt P08581); settings: 10μM; SW1736 and TL3; HGF 20 ng/ml, 10 minutes
T1 sequence (P08581 25-1390): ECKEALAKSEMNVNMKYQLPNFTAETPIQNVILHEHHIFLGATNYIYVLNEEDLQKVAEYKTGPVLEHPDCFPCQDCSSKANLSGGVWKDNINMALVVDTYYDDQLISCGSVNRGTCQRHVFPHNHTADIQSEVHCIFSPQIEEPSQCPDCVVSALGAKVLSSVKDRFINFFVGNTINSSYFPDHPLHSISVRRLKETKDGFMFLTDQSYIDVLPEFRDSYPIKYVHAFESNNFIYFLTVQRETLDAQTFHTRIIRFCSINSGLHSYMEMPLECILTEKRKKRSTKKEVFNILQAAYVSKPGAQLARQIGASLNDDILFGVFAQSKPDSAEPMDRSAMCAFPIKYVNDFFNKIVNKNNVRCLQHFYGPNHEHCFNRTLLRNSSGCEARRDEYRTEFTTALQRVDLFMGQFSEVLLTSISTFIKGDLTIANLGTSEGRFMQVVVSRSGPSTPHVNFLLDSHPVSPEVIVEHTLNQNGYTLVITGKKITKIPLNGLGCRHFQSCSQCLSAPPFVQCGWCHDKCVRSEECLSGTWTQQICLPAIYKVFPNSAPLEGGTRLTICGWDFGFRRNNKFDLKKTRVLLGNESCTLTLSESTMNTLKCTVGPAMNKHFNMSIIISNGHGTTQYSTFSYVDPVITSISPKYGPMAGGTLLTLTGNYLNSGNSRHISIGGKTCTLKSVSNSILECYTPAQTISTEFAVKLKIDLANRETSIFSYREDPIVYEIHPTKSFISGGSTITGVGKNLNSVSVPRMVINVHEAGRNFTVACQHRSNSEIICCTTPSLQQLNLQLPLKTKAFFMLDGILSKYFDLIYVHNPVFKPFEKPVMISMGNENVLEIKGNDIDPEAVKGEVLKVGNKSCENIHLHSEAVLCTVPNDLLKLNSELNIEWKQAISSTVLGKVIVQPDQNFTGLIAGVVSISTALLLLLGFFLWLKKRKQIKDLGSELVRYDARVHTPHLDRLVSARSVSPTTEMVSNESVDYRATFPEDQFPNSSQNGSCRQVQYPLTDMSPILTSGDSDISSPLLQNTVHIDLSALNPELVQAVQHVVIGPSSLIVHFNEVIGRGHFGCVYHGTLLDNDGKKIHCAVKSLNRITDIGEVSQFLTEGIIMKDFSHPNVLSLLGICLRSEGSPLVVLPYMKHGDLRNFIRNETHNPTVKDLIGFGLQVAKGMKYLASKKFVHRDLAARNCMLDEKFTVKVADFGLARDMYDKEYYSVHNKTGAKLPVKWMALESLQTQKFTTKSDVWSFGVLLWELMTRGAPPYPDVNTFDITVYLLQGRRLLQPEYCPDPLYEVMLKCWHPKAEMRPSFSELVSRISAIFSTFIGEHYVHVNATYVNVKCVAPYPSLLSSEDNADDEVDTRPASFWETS

c-MET [14] = molecular target: T1, c-MET; experiment: HGF induced c-MET phosphorylation; type: cell-based
c-MET [15] = settings: read-out: Ki value, c-MET; biochemical analysis; cited from earlier work
c-MET [16] = molecular target: T1, c-MET; settings: read-out: p-MET inhibition (IC50); HT-29; Report; cited from earlier work
c-MET [17] = molecular target: T1, c-MET; experiment: HGF induced c-MET phosphorylation; type: cell-based; remark: listed apart in the source
c-MET [18] = molecular target: T1, c-MET; settings: read-out: p-MET inhibition (IC50); MDA-MB-231; Report; cited from earlier work
c-MET [19] = molecular target: T1, c-MET; experiment: HGF induced c-MET phosphorylation; type: cell-based; remark: listed apart in the source
c-MET [20] = molecular target: T1, c-MET; experiment: HGF induced c-MET phosphorylation; type: cell-based; remark: listed apart in the source

SMILES: Cc1[nH]c(/C=C2\C(=O)Nc3ccc(S(=O)(=O)Cc4c(Cl)cccc4Cl)cc32)c(C)c1C(=O)N1CCC[C@@H]1CN1CCCC1 [PHA665752]
in vitro growth of PTC cell lines [1]: growth inhibited

IC50 (MDA-MB-231 cells): 2800 nM
IC50 [7]: 2000 to 3500 nM
IC50 (HT29 cells): 2600 nM
SMILES: C[C@@H](Oc1cc(-c2cnn(C3CCNCC3)c2)cnc1N)c1c(Cl)ccc(F)c1Cl [Crizotinib]
cells in G2/M (TL3 cells [2]; 10 μM): 48%
levels of p-STAT3 and p-AKT [3]: potently decreased
phosphorylation of ERK and 4E-BP1 [3]: not significantly altered
cells in G2/M (T2 cells [4]; 10 μM): 26%
apoptosis (% Annexin V positive cells) (TL3 cells [5]): 27%
inhibition at 1 µM (SW1736 cells [6]): < 50%
mean G2/M arrest (cells in G2/M) (SW1736 cells [8]; 10 μM): 74%
apoptosis (% Annexin V positive cells) (SW1736 cells [9]): 15%
decrease of mean tumor volume compared to vehicle group ([10]; 50 mg/kg daily oral gavage, day 50): 55.8%
Ki67 positivity in tumor tissue compared to vehicle ([10]; 50 mg/kg, day 50, immunohistochemistry): less
c-MET phosphorylation in tumor tissue compared to vehicle ([10]; 50 mg/kg, tumors dissected 4 hours after drug administration at day 50, western blotting): less
apoptosis (% Annexin V positive cells) (T2 cells [11]): 19%
IC50 (TL3 cells [12]): 2600 nM
inhibition at 0.1 µM (TL3 cells [12]; read-out: inhibition of cell growth): < 20%

effect on p-MET (c-MET [13]): inhibited
SMILES: Cc1[nH]c(/C=C2\C(=O)Nc3ccc(S(=O)(=O)N(C)c4cccc(Cl)c4)cc32)c(C)c1C(=O)N1CCN(C)CC1 [SU11274]
effect on p-AKT, p-STAT3 ([3]; 10μM): inhibited

IC50 (c-MET [14]): ~1000 nM
IC50 (MDA-MB-231 cells): 650 nM
IC50 [7]: 100 to 1000 nM
IC50 (c-MET [17]): > 1000 nM
IC50 (HT29 cells): 540 nM
IC50 (c-MET [19]): ~1000 nM
IC50 (c-MET [20]): > 1000 nM
SMILES: O=C1NC(=O)[C@@H](c2cn3c4c(cccc24)CCC3)[C@@H]1c1c[nH]c2ccccc12 [Tivantinib]
cells in G2/M (TL3 cells [2]; 1 μM): 23%
Ki (c-MET [15]): 355 nM
levels of p-STAT3 and p-AKT [3]: potently decreased
phosphorylation of ERK and 4E-BP1 [3]: not significantly altered
cells in G2/M (T2 cells [4]; 1 μM): 45%
IC50 (c-MET [16]): 100 to 300 nM
apoptosis (% Annexin V positive cells) (TL3 cells [5]): 20%
IC50 (c-MET [18]): 100 to 300 nM
mean G2/M arrest (cells in G2/M) (SW1736 cells [8]; 1 μM): 57%
apoptosis (% Annexin V positive cells) (SW1736 cells [9]): 14%
apoptosis (% Annexin V positive cells) (T2 cells [11]): 21%
IC50 (TL3 cells [12]): 330 nM
